# Patent US10065948B2, “Histone deacetylase inhibitors and compositions and methods of use thereof” (CHDI Foundation, Inc., priority 2014, dated 2018)
# Legend:
# [1] = tested on: cellular histone deacetylase activity (Lys-Ac); assay: Inhibition of cellular HDAC activity (Cell Lys-Ac); assay type: cell-based; details: Lys-Ac substrate
# [2] = target: Histone Deacetylase 4 (HDAC4) catalytic domain (Homo sapiens (Human), UniProt P56524); assay: Biochemical HDAC inhibition assay, fluorogenic substrate Boc-Lys(Tfa)-AMC
# Summary of the method: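 Human HDAC4 catalytic domain (aa 648-1032, C-terminal His6) at 0.2 μg/mL working solution was tested against a 16-point compound dilution series in Tris buffer pH 8.0 for 15 min at 37 °C. Substrate Boc-Lys(Tfa)-AMC was prepared at 50 μM (5×). The reaction was stopped with trypsin plus reference inhibitor for 1 h at 37 °C, and AMC fluorescence was read at Ex 355/Em 460 nm.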
# [3] = tested on: cellular histone deacetylase enzymatic activity in Jurkat E6-1 cells; assay: Inhibition of cellular HDAC activity, Boc-Lys(Tfa)-AMC substrate (Cell Lys-TFA); assay type: cell-based
# Summary of the method: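 Jurkat E6-1 cells (75,000/well) were treated with a 16-point compound dilution for 2 h at 37 °C, then exposed to Boc-Lys(Tfa)-AMC for 3 h. Lysis buffer containing trypsin was added overnight (15-16 h), and AMC fluorescence was read at Ex 355/Em 460 nm.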
# [4] = Homo sapiens, Jurkat E6.1, Lys-TFA substrate
# Histone Deacetylase 4 (HDAC4) catalytic domain, sequence (P56524 648-1032): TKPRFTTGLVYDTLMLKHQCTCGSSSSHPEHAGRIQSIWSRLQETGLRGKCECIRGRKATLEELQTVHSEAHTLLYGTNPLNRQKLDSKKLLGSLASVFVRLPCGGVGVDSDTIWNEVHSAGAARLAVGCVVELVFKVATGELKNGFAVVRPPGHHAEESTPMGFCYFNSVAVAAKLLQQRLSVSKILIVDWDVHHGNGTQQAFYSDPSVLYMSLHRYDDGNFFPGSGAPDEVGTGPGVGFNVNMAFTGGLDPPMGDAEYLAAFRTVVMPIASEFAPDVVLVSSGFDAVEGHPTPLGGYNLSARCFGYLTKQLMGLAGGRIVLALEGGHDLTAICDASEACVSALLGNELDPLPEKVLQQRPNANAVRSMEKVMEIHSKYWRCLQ
SMILES,IC50 [1] [µM],IC50 [2] [µM],"IC50 [3, 4] [µM]",IC50 ([3]; Lys-TFA substrate) [µM]
"Cc1cc(-c2nc3c(s2)C[C@@](C(=O)NO)(c2cccc(F)c2C)C3)n(C)n1 [Example 70, (R)-2-(1,3-Dimethyl-1H-pyrazol-5-yl)-5-(3-fluoro-2-methylphenyl)-N-hydroxy-5,6-dihydro-4H-cyclopenta[d]thiazole-5-carboxamide]",> 50,0.122,0.079,–
"Cc1c(F)cccc1[C@]1(C(=O)NO)Cc2cnn(-c3ccc(F)cc3)c2C1 [Example 5, (S)-5-(3-Fluoro-2-methylphenyl)-1-(4-fluorophenyl)-N-hydroxy-1,4,5,6-tetrahydrocyclopenta[c]pyrazole-5-carboxamide]",> 50,0.053,0.099,–
"Cc1c(F)cccc1[C@@]1(C(=O)NO)Cc2nc(-c3ccnn3C)sc2C1 [Example 69, (R)-5-(3-Fluoro-2-methylphenyl)-N-hydroxy-2-(1-methyl-1H-pyrazol-5-yl)-5,6-dihydro-4H-cyclopenta[d]thiazole-5-carboxamide]",> 50,0.044,0.035,–
"Cc1c(F)cccc1[C@]1(C(=O)NO)Cc2cnc(-c3ccccc3Cl)nc2C1 [Example 48, (S)-2-(2-Chlorophenyl)-6-(3-fluoro-2-methylphenyl)-N-hydroxy-6,7-dihydro-5H-cyclopenta[d]pyrimidine-6-carboxamide]",> 50,0.156,0.06,–
"Cc1c(F)cccc1C1(C(=O)NO)CCc2nn(CC(F)(F)F)c(C3CC3)c2C1 (stereo not drawn) [Example 39, 3-Cyclopropyl-5-(3-fluoro-2-methylphenyl)-N-hydroxy-2-(2,2,2-trifluoroethyl)-4,5,6,7-tetrahydro-2H-indazole-5-carboxamide]",> 50,4.4,1.8,–
"Cc1c(F)cccc1[C@]1(C(=O)NO)Cc2cnn(-c3ccccc3F)c2C1 [Example 3, (S)-5-(3-Fluoro-2-methylphenyl)-1-(2-fluorophenyl)-N-hydroxy-1,4,5,6-tetrahydrocyclopenta[c]pyrazole-5-carboxamide]",> 50,0.017,0.033,–
"Cc1c(F)cccc1C1(C(=O)NO)CCc2nc(C3CC3)ncc2C1 (stereo not drawn) [Example 46, 2-Cyclopropyl-6-(3-fluoro-2-methylphenyl)-N-hydroxy-5,6,7,8-tetrahydroquinazoline-6-carboxamide]",> 50,1.6,0.76,–
"Cc1c(F)cccc1[C@]1(C(=O)NO)CCc2nn(Cc3ccccc3)cc21 [Example 94, (R)-2-Benzyl-4-(3-fluoro-2-methylphenyl)-N-hydroxy-2,4,5,6-tetrahydrocyclopenta[c]pyrazole-4-carboxamide]",> 50,0.82,2.78,–
"Cc1cc(C)nc(-n2cc3c(n2)C[C@](C(=O)NO)(c2cccc(F)c2C)C3)n1 [Example 91, (S)-2-(4,6-Dimethylpyrimidin-2-yl)-5-(3-fluoro-2-methylphenyl)-N-hydroxy-2,4,5,6-tetrahydrocyclopenta[c]pyrazole-5-carboxamide]",> 50,0.28,0.46,–
"Cc1c(F)cccc1[C@]1(C(=O)NO)CCc2c1cnn2C1CC1 [Example 59, (R)-1-cyclopropyl-4-(3-fluoro-2-methylphenyl)-N-hydroxy-1,4,5,6-tetrahydrocyclopenta[c]pyrazole-4-carboxamide]",> 50,0.1,0.72,–
"Cc1c(F)cccc1[C@]1(C(=O)NO)Cc2cnn(-c3ccc(F)cc3F)c2C1 [Example 17, (S)-1-(2,4-Difluorophenyl)-5-(3-fluoro-2-methylphenyl)-N-hydroxy-1,4,5,6-tetrahydrocyclopenta[c]pyrazole-5-carboxamide]",> 50,0.029,0.039,–
"Cc1c(F)cccc1C1(C(=O)NO)CCc2nc(-c3cncnc3)sc2C1 (stereo not drawn) [Example 43, 6-(3-Fluoro-2-methylphenyl)-N-hydroxy-2-(pyrimidin-5-yl)-4,5,6,7-tetrahydrobenzo[d]thiazole-6-carboxamide]",> 50,1.9,0.66,–
"Cc1c(F)cccc1[C@]1(C(=O)NO)Cc2cnn(-c3cccc(Cl)c3F)c2C1 [Example 10, (S)-1-(3-Chloro-2-fluorophenyl)-5-(3-fluoro-2-methylphenyl)-N-hydroxy-1,4,5,6-tetrahydrocyclopenta[c]pyrazole-5-carboxamide]",> 50,0.017,0.017,–
"Cc1c(F)cccc1[C@@]1(C(=O)NO)Cc2nc(-c3ccc(F)cn3)sc2C1 [Example 96, (R)-5-(3-Fluoro-2-methylphenyl)-N-hydroxy-2-(5-fluoropyridin-2-yl)-5,6-dihydro-4H-cyclopenta[d]thiazole-5-carboxamide]",> 50,0.051,0.06,–
"Cc1c(F)cccc1[C@]1(C(=O)NO)CCc2nn(Cc3ccccc3F)cc21 [Example 95, (R)-4-(3-fluoro-2-methylphenyl)-2-(2-fluorobenzyl)-N-hydroxy-2,4,5,6-tetrahydrocyclopenta[c]pyrazole-4-carboxamide]",> 50,0.71,2.98,–
"Cc1cccc(F)c1-n1ncc2c1C[C@](C(=O)NO)(c1cccc(F)c1C)C2 [Example 15, (S)-5-(3-Fluoro-2-methylphenyl)-1-(2-fluoro-6-methylphenyl)-N-hydroxy-1,4,5,6-tetrahydrocyclopenta[c]pyrazole-5-carboxamide]",> 50,0.019,0.032,–
"Cc1ccc(C)c(-n2ncc3c2C[C@](C(=O)NO)(c2cccc(F)c2C)C3)c1 [Example 12, (S)-1-(2,5-Dimethylphenyl)-5-(3-fluoro-2-methylphenyl)-N-hydroxy-1,4,5,6-tetrahydrocyclopenta[c]pyrazole-5-carboxamide]",> 50,0.021,0.018,–
"Cc1c(F)cccc1C1(C(=O)NO)Cc2nc(-c3cnn(C)c3C)sc2C1 (single isomer, unassigned) [Example 76, E1-(abs)-2-(1,5-Dimethyl-1H-pyrazol-4-yl)-5-(3-fluoro-2-methylphenyl)-N-hydroxy-5,6-dihydro-4H-cyclopenta[d]thiazole-5-carboxamide]",> 50,0.068,–,0.036
"Cc1c(F)cccc1[C@]1(C(=O)NO)Cc2cnn(-c3cccc(F)c3)c2C1 [Example 6, (S)-5-(3-Fluoro-2-methylphenyl)-1-(3-fluorophenyl)-N-hydroxy-1,4,5,6-tetrahydrocyclopenta[c]pyrazole-5-carboxamide]",> 50,0.044,0.067,–
"Cc1c(F)cccc1[C@]1(C(=O)NO)Cc2cnn(-c3cccc(Cl)c3)c2C1 [Example 4, (S)-1-(3-Chlorophenyl)-5-(3-fluoro-2-methylphenyl)-N-hydroxy-1,4,5,6-tetrahydrocyclopenta[c]pyrazole-5-carboxamide]",> 50,0.061,0.072,–
"Cc1c(F)cccc1[C@]1(C(=O)NO)Cc2cnn(Cc3ccccc3)c2C1 [Example 92, (S)-1-Benzyl-5-(3-fluoro-2-methylphenyl)-N-hydroxy-1,4,5,6-tetrahydrocyclopenta[c]pyrazole-5-carboxamide]",> 50,0.048,0.027,–
"Cc1cccc(-n2cc3c(n2)C[C@](C(=O)NO)(c2cccc(F)c2C)C3)c1 [Example 25, (S)-5-(3-fluoro-2-methylphenyl)-N-hydroxy-2-(m-tolyl)-2,4,5,6-tetrahydrocyclopenta[c]pyrazole-5-carboxamide]",> 50,0.076,0.16,–
"Cc1c(F)cccc1C1(C(=O)NO)Cc2nc(-c3cnn(C)c3C)sc2C1 (single isomer, unassigned) [Example 77, E2-(abs)-2-(1,5-dimethyl-1H-pyrazol-4-yl)-5-(3-fluoro-2-methylphenyl)-N-hydroxy-5,6-dihydro-4H-cyclopenta[d]thiazole-5-carboxamide]",> 50,0.2,–,0.128
"Cc1cccc(-n2ncc3c2C[C@](C(=O)NO)(c2cccc(F)c2C)C3)c1 [Example 24, (S)-5-(3-Fluoro-2-methylphenyl)-N-hydroxy-1-(m-tolyl)-1,4,5,6-tetrahydrocyclopenta[c]pyrazole-5-carboxamide]",> 50,0.028,0.064,–
"Cc1c(F)cccc1C1(C(=O)NO)CCc2nc(NS(=O)(=O)c3ccccc3)sc2C1 (stereo not drawn) [Example 41, 6-(3-Fluoro-2-methylphenyl)-N-hydroxy-2-(phenylsulfonamido)-4,5,6,7-tetrahydrobenzo[d]thiazole-6-carboxamide]",> 50,0.19,1.6,–
"Cc1cnccc1-n1cc2c(n1)C[C@](C(=O)NO)(c1cccc(F)c1C)C2 [Example 27, (S)-5-(3-fluoro-2-methylphenyl)-N-hydroxy-2-(3-methylpyridin-4-yl)-2,4,5,6-tetrahydrocyclopenta[c]pyrazole-5-carboxamide]",> 50,0.053,0.116,–
"Cc1ccc(-n2ncc3c2C[C@](C(=O)NO)(c2cccc(F)c2C)C3)cc1 [Example 9, (S)-5-(3-Fluoro-2-methylphenyl)-N-hydroxy-1-(p-tolyl)-1,4,5,6-tetrahydrocyclopenta[c]pyrazole-5-carboxamide]",> 50,0.039,0.082,–
